Read-outs that look alike come from different tables or passages of the source.
How the values were obtained:
mushroom tyrosinase [1] = assay: Tyrosinase inhibition assay (spectrophotometric, L-tyrosine, dopachrome at 495 nm); format: biochemical, Agaricus bisporus; details: mushroom tyrosinase 100 U/mL, 1 mM L-tyrosine, 37 °C; mean of three experiments; read-out: Tyrosinase inhibitory activity IC50±SD
Description: The tyrosinase inhibitory activity was evaluated using a method previously described with slight modification (for details, see the Supporting Materials). […]
Tyrosinase inhibition assay
30 microliters of the sample (final concentrations of 50, 100, 200 µM) and 50 µL of 100 U/mL mushroom tyrosinase were treated in 96-well plates and incubated at 37 ◦C for 15 min. Subsequently, 50 µL of 1 mM L-tyrosine was added and then reacted at 37 ◦C for 15 min. The amount of dopachrome formed was measured at 495 nm using Thermo Scientific™ Multiskan SkyHig h Microplate Spectrophotometer. Each sample has been tested in triplicate and the tyrosinase inhibitory activity was calculated using the following equation:
Tyrosinase inhibitory activity (I%) = [1 − (S − S0)/ (C − C0)] × 100 where S is the absorbance of the sample, tyrosinase, and L-tyrosine; S0 is the absorbance of the sample and L-tyrosine; C is the absorbance of tyrosinase and L-tyrosine, and C0 is the absorbance of L-tyrosine (negative […]
control). […] IC50 values were calculated through a linear regression and expressed as means ± SD (standard deviation). They were considered statistically significant with values of p < 0.05. […]

[2] = molecular target: T1, AchE (from Electrophorus electricus) (Electrophorus electricus, UniProt O42275); assay: biochemical
T1 construct: purchased Sigma-Aldrich (Milan, Italy)
Description: The acetylcholinesterase (AchE) inhibitory activity was evaluated using a method described by Balkrishna et al. with slight modification (for details, see the Supporting Materials). […]
[…] IC50 values were calculated through a linear regression and expressed as means ± SD (standard deviation). They were considered statistically significant with values of p < 0.05.
Acetylcholinesterase inhibition assay
The assay mechanism forecasts that the AchE enzyme hydrolyses the substrate acetylthiocholine, resulting in the product “thiocholine” which reacts with Ellman’s reagent (5,5’-dithio-bis-(2-nitrobenzoic acid), DTNB) to produce 2-nitrobenzoate-5-mercaptothiocholine and 5-thio-2-nitrobenzoate (TNB); the latter can be detected at 415 nm. 150 µL of phosphate buffer (0.1 M), 20 microliters of the sample (final concentrations of 100, 200, […]
300 µM) and 20 µL of 0.2 U/mL AchE (from Electrophorus electricus) were treated in 96-well plates and […]

mushroom tyrosinase [3] = assay: Tyrosinase inhibition kinetics study (Lineweaver-Burk plot); format: biochemical, Agaricus bisporus
Description: Kinetic analysis of the tyrosinase enzyme for compound 13 was carried out using the Lineweaver–Burk double reciprocal plot. […] At 37 °C, the enzyme inhibition reaction was recorded by measuring the absorbance of the microplate reader at 495 nm for 0, 3, 6, 9, 12, and 15 min.

[4] = 0.2 U/mL AchE, acetylthiocholine, 37 °C, mean of three experiments, read-out: AchE inhibitory activity IC50±SD

T1 sequence (O42275 24-633): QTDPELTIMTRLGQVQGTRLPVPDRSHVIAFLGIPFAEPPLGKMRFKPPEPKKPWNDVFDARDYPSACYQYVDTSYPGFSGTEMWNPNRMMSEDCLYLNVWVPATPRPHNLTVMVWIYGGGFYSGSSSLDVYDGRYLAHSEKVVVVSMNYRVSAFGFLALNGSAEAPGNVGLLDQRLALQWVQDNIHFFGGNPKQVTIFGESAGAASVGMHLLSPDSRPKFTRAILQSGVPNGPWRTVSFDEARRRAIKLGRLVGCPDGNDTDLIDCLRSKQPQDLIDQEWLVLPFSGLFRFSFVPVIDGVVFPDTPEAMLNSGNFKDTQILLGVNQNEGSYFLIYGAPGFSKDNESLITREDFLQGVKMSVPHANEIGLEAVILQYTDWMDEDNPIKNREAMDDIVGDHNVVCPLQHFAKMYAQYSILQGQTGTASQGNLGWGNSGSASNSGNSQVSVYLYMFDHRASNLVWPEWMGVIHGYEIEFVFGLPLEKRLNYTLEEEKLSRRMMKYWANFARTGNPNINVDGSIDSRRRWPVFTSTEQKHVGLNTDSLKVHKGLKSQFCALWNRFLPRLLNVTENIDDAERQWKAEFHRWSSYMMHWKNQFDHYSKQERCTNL

## COc1cc2ccc(=O)oc2cc1O[C@@H]1O[C@H](CO)[C@@H](O)[C@H](O)[C@H]1O [Compound 1, Scopolin]
Mushroom tyrosinase [1]
  IC50: 46.8 ± 6.34 µM
[2]; [4]
  IC50: 231 µM

## O=C(O)C[C@@H]1CCC(=O)[C@@H]1C/C=C\CCO[C@@H]1O[C@H](CO)[C@@H](O)[C@H](O)[C@H]1O [Compound 2, Tuberonic acid glucoside]
Mushroom tyrosinase [1]
  IC50: 192 ± 7.92 µM
[2]; [4]
  IC50: 343 ± 10 µM

## OC[C@H]1O[C@@H](OCCc2ccccc2)[C@H](O)[C@@H](O)[C@@H]1O [Compound 3, Phenylethyl ꞵ-D-glucopyranoside]
Mushroom tyrosinase [1]
  IC50: 196 ± 7.01 µM
[2]; [4]
  IC50: 281 ± 10.1 µM

## CCC(C)O[C@@H]1O[C@H](CO)[C@@H](O)[C@H](O)[C@H]1O (stereo partly drawn) [Compound 4, 1-Methylpropyl ꞵ-D-glucopyranoside]
Mushroom tyrosinase [1]
  IC50: 412 ± 8.12 µM
[2]; [4]
  IC50: 352 ± 9.03 µM

## C[C@@H]1O[C@@H](OC[C@H]2O[C@@H](Oc3cc(O)c4c(=O)cc(-c5ccc(O)cc5)oc4c3)[C@H](O)[C@@H](O)[C@@H]2O)[C@H](O)[C@H](O)[C@H]1O [Compound 6, Apigenin 7-O-rutinoside]
Mushroom tyrosinase [1]
  IC50: 32.1 µM
[2]; [4]
  IC50: 182 µM

## COc1ccc(-c2oc3cc(O[C@@H]4O[C@H](CO)[C@@H](O)[C@H](O)[C@H]4O)c(OC)c(O)c3c(=O)c2O)cc1 [Compound 7, Camaraside]
Mushroom tyrosinase [1]
  IC50: 87.4 ± 5.67 µM
[2]; [4]
  IC50: 232 ± 9.98 µM

## C=C1C(=O)O[C@@H]2/C=C(/C)[C@@H](O)C[C@@H](O)C(=C)C[C@H](OC(=O)/C(C)=C/C)[C@@H]12 [Compound 8, 8-Tigloylhydroxyisonobilin]
Mushroom tyrosinase [1]
  IC50: 184 ± 7.12 µM
[2]; [4]
  IC50: 225 µM

## O=c1cc(-c2ccc(O)cc2)oc2cc(O)cc(O)c12 [Compound 9, Apigenin]
[2]
  IC50: 362 ± 10.1 µM

## C=C1C(=O)O[C@@H]2/C=C(/C)[C@@H](O)C[C@@H](O)C(=C)C[C@H](OC(=O)/C(C)=C\C)[C@@H]12 [Compound 10, Hydroxyisonobilin]
Mushroom tyrosinase [1]
  IC50: 188 ± 6.63 µM
[2]; [4]
  IC50: 268 ± 12.1 µM

## C=C1C(=O)O[C@@H]2/C=C(/C)[C@H](O)C[C@@H](O)C(=C)C[C@H](OC(=O)/C(C)=C\C)[C@@H]12 [Compound 11, 3-Epi-hydroxyisonobilin]
Mushroom tyrosinase [1]
  IC50: 286 ± 8.28 µM
[2]; [4]
  IC50: 263 ± 11.2 µM

## C=C1C[C@H](OC(=O)/C(C)=C\C)[C@H]2C(=C)C(=O)O[C@@H]2/C=C(/C)[C@@H](O)CC1=O [Compound 12, Nobilinon A]
Mushroom tyrosinase [1]
  IC50: 314 ± 8.09 µM
[2]; [4]
  IC50: 244 ± 9.11 µM

## C=C1CC(OC(=O)C(C)=CC)C2C(C=C(C)C(O)CC1O)OC(=O)C2C (stereo not shown) [Compound 13, 11,13-Dihydro-8-tigloylhydroxyisonobilin]
Mushroom tyrosinase [3]; Lineweaver-Burk double reciprocal plot
  Type of tyrosinase inhibition: uncompetitive
Mushroom tyrosinase [3]; inhibitor 53.52 µg/mL, L-tyrosine 1-0.125 mM, control Vmax 42.02 µM/min
  Vmax in the presence of the inhibitor: 27.25 µM/min
Mushroom tyrosinase [1]
  IC50: 146 µM
[2]; [4]
  IC50: 245 ± 9.16 µM

## C=C1C(=O)O[C@@H]2/C=C(/C)[C@@H](O)C/C=C(\C)C[C@H](OC(=O)/C(C)=C\C)[C@@H]12 [Compound 14, Nobilin]
Mushroom tyrosinase [1]
  IC50: 297 ± 7.23 µM
[2]; read-out: AchE inhibitory activity IC50±SD
  IC50: 304 µM

## COc1ccc(-c2cc(=O)c3c(O)c(OC)c(O)cc3o2)cc1 [Compound 15, 5,7-Dihydroxy-6-methoxy-2-(4-methoxyphenyl)-4H-1-benzopyran-4-one]
Mushroom tyrosinase [1]
  IC50: 212 ± 6.76 µM
[2]; [4]
  IC50: 190 µM

## ꞵ-D-Glucopyranose, 1-[(2 Z)-2 methyl-2-butenoate] [Compound 5]
Mushroom tyrosinase [1]
  IC50: 299 ± 7.86 µM
[2]; [4]
  IC50: 388 ± 11.1 µM
